Results from patent US10854312B2, “Selective peptide antagonists” (BIONIZ, LLC, priority 2013, dated 2020).
“Also recorded” adds a separate entry of the source. No end group written: not given here. MAL‑PEG24 = bi-functional PEG24 molecule (Mal-PEG24)

Experiments:
Assay type in all cases: cell-based
[1] = tested on: human IL-2; assay: CTLL-2 proliferation assay (WST-1), IL-2; conditions: IL-2 5 and 10 units/ml, BNZ132-PEG-130 0.1-10 μM, WST-1
Experimental: (§1) FIG. 6A-FIG. 6E presents inhibitory spectrum of BNZ132-1 over γc- and non-γc-cytokines. […] Neutralizing antibodies against each cytokine (R & D systems, 5 μg ml^−1) were included as controls. After 20 h, the cells were pulsed with WST-1 (Clontech) and OD450 of each well was measured after 6 h. A 19-mer scrambled peptide was used as a negative control at 5 μM. The experiments were conducted in triplicate (applies to all experiments in FIG. 6A-FIG. 6E). The result represents one of at least three independent experiments (applies to all experiments in FIG. 6A-FIG. 6E). […] In PT-18 proliferation assay, PT-18β or PT-18h21Rα cells were withdrawn of mouse IL-3 for 12 h before the experiment. Cells were then incubated with 1 nM of mouse IL-4, mouse IL-9, or mouse IL-21 in the presence or absence of the indicated doses (μM) of BNZ132-1. Neutralizing antibodies to each cytokine (5 μg ml^−1, except for anti-mouse IL-21 polyclonal antibody which was used at 15 μg ml−1) and a scrambled control peptide (5 μM) were included as negative controls. WST-1 assay was conducted as described above. […] In PT-18 h21Rα survival assay, PT-18h21Rα cells are described in the text. […] Both parental and hIL-21Rα positive PT-18 cells were washed and incubated without IL-3 for 12 h before the assay. […] The Y-axis represents the cpm (count per minute) values measured by a β-counter. […]

[2] = tested on: IL-6; assay: T1165 cell proliferation assay, IL-6; conditions: IL-6 0.1 ng/ml, BNZ132-PEG-130 0.1-10 μM, 24 hours, WST-1
Experimental: CTLL2 cells are cultured in the presence of 5 u/ml and 10 u/ml of IL-2 (FIG. 10A) and 2.5 ng/ml and 5 ng/ml of IL-15 (FIG. 10B) in the presence of increasing concentration of BNZ132-PEG-130. T1165 cells are cultured with 0.1 ng/ml of IL-6 (FIG. 10C) and increasing concentration of BNZ132-PEG-130. […] BNZ132-1 was conjugated to BNZ130 via a PEG24 linker. The name of the bi-antagonist peptide is BNZ132-PEG-130. FIG. 10A and FIG. 10B show the results of BNZ132-PEG-130 in IL-2 (FIG. 10A) and IL-15 (FIG. 10B) CTLL2 proliferation assay. Cells were washed and incubated with IL-2 (5 and 10 units/ml), IL-15 (2.5 and 5 ng/ml) in the presence or absence of BNZ132-PEG-130 (0.1-10 μM). Cells were then pulsed with the WST-1 reagent to measure the proliferative response for the next 6 hr (OD450). […] Cells are washed and incubated with IL-6 (0.1 ng/ml) in the presence or absence of BNZ132-PEG-130 (0.1-10 μM) for 24 hours. Cells were then pulsed with WST-1 reagent for the following 6 hr to measure OD450. The BNZ130-1 polypeptide as presented in Table 2, above, is tested for its activity in inhibiting IL-6 activity. T1165 cells that are dependent on human or mouse IL-6 for their growth in vitro are selected. The cell line is cultured in the absence of IL-6, In the presence of IL-6, in the presence of BNZ130-1, and in the presence of IL-6 and BNZ130-1.

[3] = tested on: human IL-15; assay: CTLL-2 proliferation assay (WST-1), IL-15; conditions: IL-15 2.5 and 5 ng/ml, BNZ132-PEG-130 0.1-10 μM, WST-1
Experimental: as §1

Sequence: IKEFLQSFIHIVQSIINT (SEQ ID NO: 130)—MAL-PEG24—SLTHLIERSSRAVLQSLLRASRQ (SEQ ID NO: 131) (linker (positions not given here) via MAL‑PEG24; also: MAL-PEG24 linker joins the two peptides, attachment points not given here) [BNZ132-PEG-130, BNZ132-1 conjugated to BNZ130 via a PEG24 linker; dual peptide antagonist]
- inhibition of IL-2-induced proliferation of CTLL2 cells [1]: inhibiting; also recorded: inhibited in a dose response manner
- inhibition of IL-6-induced proliferation of T1165 cells [2]: inhibiting; also recorded: inhibited in a dose response manner
- inhibition of IL-15-induced proliferation of CTLL2 cells [3]: inhibiting; also recorded: inhibited in a dose response manner
